Measured values as given in publication PMC11808397, “Development of selective nanomolar cyclic peptide ligands as GBA1 enzyme stabilisers” (RSC Chemical Biology, 2025).
pIC50: −log10 of the molar value. Positions of bridges follow the written chain, without caps; N, C: chain ends. Non-standard residues stand in square brackets, D forms with d. Residues, ends and D or L forms follow the SMILES beside them.

target: T1, GBA3 (Homo sapiens, UniProt Q9H227); assay: GBA3 inhibition in overexpressing HEK293T lysates; type: biochemical; details: 100 mM HEPES, 4-MU substrate
T1 construct: expressed in transfected cells
T1 sequence (Q9H227 1-469): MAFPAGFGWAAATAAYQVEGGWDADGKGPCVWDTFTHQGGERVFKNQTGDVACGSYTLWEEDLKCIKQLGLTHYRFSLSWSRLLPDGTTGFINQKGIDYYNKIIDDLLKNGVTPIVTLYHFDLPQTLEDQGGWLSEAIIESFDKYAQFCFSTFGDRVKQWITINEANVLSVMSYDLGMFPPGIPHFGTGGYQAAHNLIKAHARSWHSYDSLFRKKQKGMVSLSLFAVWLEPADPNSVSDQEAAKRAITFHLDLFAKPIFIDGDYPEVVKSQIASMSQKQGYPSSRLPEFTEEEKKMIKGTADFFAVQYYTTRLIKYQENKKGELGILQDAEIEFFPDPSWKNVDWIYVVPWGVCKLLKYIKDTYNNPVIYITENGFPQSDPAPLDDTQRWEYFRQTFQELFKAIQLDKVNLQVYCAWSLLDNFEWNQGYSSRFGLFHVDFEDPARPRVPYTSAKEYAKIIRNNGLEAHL
Protocol: Based on the pull-down validation, a set of eight cyclic peptides (L1, L2, L4, L6, D1, D8, D12 and D13) were identified, synthesized, and evaluated for their inhibitory potency against recombinant human GBA1 (rhGBA1, Cerezyme®) and their selectivity over human β-glucosidases GBA2 and GBA3. Half-maximum inhibitory concentration (IC50) values for β-glucosidases were determined in vitro by measuring hydrolysis of 4-methylumbelliferyl-β-D-glucopyranoside (4-MU-β-D-Glu) fluorogenic substrate. […]
Pure product fractions were pooled, lyophilized, and dissolved again in DMSO before concentration was determined by A280 using a sample diluted in phosphate buffer at pH 7.4 and extinction coefficients determined from the sequence using the Expasy ProtParam online tool (https://web.expasy.org/protparam/). […]
2.5. In vitro IC50 and Ki measurements […]
nM) at 37 °C for 30 min. Following this, 100 µL of 4MU substrate was added and the samples were again incubated at 37 °C for 30 min. The reaction was quenched using excess 1 M NaOH-glycine (200 µL, pH 10.3) and 4MU fluorescence was measured using a LS55 fluorimeter (λEx 366 nm and λEm 445 […]
GBA2 and GBA3 IC50 values were determined following a similar protocol,5 using stable GBA2 or GBA3 HEK293T over-expression cell lysates and McIlvaine buffer pH 5.8 with 0.1 % BSA (w/v) and 100 mM HEPES with 0.1 % BSA, respectively. Covalent inhibitor of endogenous GBA1 (1 µM Bodipy green-cyclophellitol β-epoxide activity based probe) was added for both GBA2 and GBA3 assays, and GBA2 inhibitor N-(5-adamantane-1-yl-methoxy-pentyl)-deoxynojirimycin, AMP-DNM at 1 nM) was added for GBA3 assay. Cell lysates were pre-incubated with the aforementioned GBA1/GBA2 inhibitors for 30 min at 37 °C (12.5 µL) and subsequently incubated with the tested ligands at a range of concentrations for 30 min at 37 °C (12.5 µL), after which 100 µL 4MU-β-D-glucopyranoside was added for a final incubation of 30 min at 37 °C, quenched with 200 µL 1 M NaOH-glycine (pH 10.3) and fluorescence was measured. IC50 values were calculated using GraphPad Prism version 8.

CC[C@H](C)[C@H](NC(=O)[C@H](CCCNC(=N)N)NC(=O)[C@@H]1CSCC(=O)N[C@@H](Cc2ccc(O)cc2)C(=O)N[C@@H](C)C(=O)N[C@@H](Cc2ccc(O)cc2)C(=O)N[C@@H](Cc2c[nH]c3ccccc23)C(=O)N[C@@H](Cc2c[nH]c3ccccc23)C(=O)N[C@@H](CC(C)C)C(=O)N1)C(=O)N1CCC[C@H]1C(=O)N[C@@H](Cc1c[nH]c2ccccc12)C(=O)N[C@@H](CC(C)C)C(=O)N[C@@H](CO)C(=O)N[C@H](C(N)=O)C(C)C [L2] ({CH2CO}-YAYWWLCRIPWLSV-NH2; thioether N-7) and CC(C)C[C@@H]1NC(=O)CNC(=O)[C@H](Cc2ccccc2)NC(=O)[C@H](CC(C)C)NC(=O)[C@@H]2CCCN2C(=O)[C@H](Cc2ccc(O)cc2)NC(=O)CSC[C@@H](C(=O)N2CCC[C@H]2C(=O)N[C@@H](CC(N)=O)C(=O)N[C@@H](Cc2c[nH]c3ccccc23)C(=O)N[C@@H](Cc2ccccc2)C(=O)N2CCC[C@H]2C(=O)N[C@@H](Cc2ccc(O)cc2)C(=O)N[C@@H](CCC(N)=O)C(=O)N[C@@H](CS)C(N)=O)NC(=O)[C@H](CO)NC(=O)[C@H](Cc2ccccc2)NC1=O [L4] ({CH2CO}-YPLFGLFSCPNWFPYQC-NH2; thioether N-9) cannot be ordered by pIC50: under 4.00 for the first, under 4.00 for the second.

CC(C)C[C@H](NC(=O)[C@@H](NC(=O)[C@H](CCCNC(=N)N)NC(=O)[C@@H]1CSCC(=O)N[C@H](Cc2ccc(O)cc2)C(=O)N[C@@H]([C@@H](C)O)C(=O)N2CCC[C@H]2C(=O)NCC(=O)N[C@@H](Cc2ccc(O)cc2)C(=O)N[C@@H](C(C)C)C(=O)N[C@@H](Cc2ccc(O)cc2)C(=O)N1)C(C)C)C(=O)N[C@@H](CCCCN)C(=O)N[C@@H](Cc1ccc(O)cc1)C(=O)N[C@@H](CS)C(N)=O [D8] ({CH2CO}-[dY]TPGYVYCRVLKYC-NH2; thioether N-8) and CC[C@H](C)[C@H](NC(=O)[C@H](CC(C)C)NC(=O)[C@H](Cc1ccc(O)cc1)NC(=O)[C@H](Cc1ccc(O)cc1)NC(=O)[C@@H]1CSCC(=O)N[C@H](Cc2ccc(O)cc2)C(=O)N[C@@H](CCCNC(=N)N)C(=O)N[C@@H](C(C)C)C(=O)N1)C(=O)N[C@H](C(=O)N[C@H](C(=O)N[C@@H](CC(C)C)C(=O)N[C@@H](CC(=O)O)C(=O)N[C@@H](CS)C(N)=O)C(C)C)[C@@H](C)O [D1] ({CH2CO}-[dY]RVCYYLITVLDC-NH2; thioether N-4) cannot be ordered by pIC50: under 4.00 for the first, under 4.00 for the second.

Going from CC[C@H](C)[C@@H]1NC(=O)[C@H](CO)NC(=O)[C@H](CS)NC(=O)CNC(=O)CNC(=O)[C@H](CC(C)C)NC(=O)[C@H](Cc2ccc(O)cc2)NC(=O)[C@H](C(C)C)NC(=O)[C@H](CC(C)C)NC(=O)[C@H](CCCNC(=N)N)NC(=O)[C@@H]2CCCN2C(=O)[C@H](Cc2ccc(O)cc2)NC(=O)CSC[C@@H](C(N)=O)NC(=O)[C@H](CCC(=O)O)NC(=O)[C@H](CC(C)C)NC(=O)[C@H](CC(C)C)NC1=O [L1] ({CH2CO}-YPRLVYLGGCSILLEC-NH2; thioether N-16) to CC(C)C[C@@H]1NC(=O)CNC(=O)[C@H](CC(C)C)NC(=O)[C@@H](Cc2ccc(O)cc2)NC(=O)CSC[C@@H](C(N)=O)NC(=O)[C@H](CO)NC(=O)[C@H](CCCCN)NC(=O)[C@H](CC(C)C)NC(=O)[C@H](Cc2ccccc2)NC(=O)[C@H](CCCNC(=N)N)NC(=O)[C@H](Cc2ccc(O)cc2)NC(=O)[C@H](Cc2c[nH]c3ccccc23)NC1=O [D12] ({CH2CO}-[dY]LGLWYRFLKSC-NH2; thioether N-12), the pIC50 rises from under 4.00 to about 4.07. The second is the more potent here.

CC[C@H](C)[C@@H]1NC(=O)[C@H](Cc2ccc(O)cc2)NC(=O)CSC[C@@H](C(N)=O)NC(=O)[C@H](Cc2c[nH]c3ccccc23)NC(=O)[C@H](CCC(N)=O)NC(=O)[C@H]([C@@H](C)CC)NC(=O)[C@H]([C@@H](C)CC)NC(=O)[C@@H]2CCCN2C(=O)[C@H](C(C)C)NC(=O)[C@H](Cc2ccc(O)cc2)NC(=O)[C@H](Cc2c[nH]c3ccccc23)NC(=O)[C@H](CO)NC1=O [L6] ({CH2CO}-YISWYVPIIQWC-NH2; thioether N-12) was tested, and the pIC50 was under 4.00.
